Experimental data taken from patent publication US11376302B2, “Methods for treating depression and major depressive disorder” (priority 2017, dated 2022).
Entries after “also recorded” stand apart in the source; their conditions may differ.

Key:
[1] = system: global protein synthesis in the hippocampus; assay: SUnSET measurement of global protein synthesis in brain tissue after injection; type: in vivo, mouse
Procedure: Protein synthesis was measured by the SUnSET method. After pharmacological manipulation, mice were sacrificed by cervical dislocation, brains were removed, and the hippocampi were rapidly dissected, immersed in liquid nitrogen, and stored at −80° C. until further use. Hippocampi were homogenized using 20 strokes of a pre-chilled glass homogenizer with 600 μl of lysis buffer containing 50 mM Tris, pH 7.8, 240 mM KCl, 10 mM MgCl2, 250 mM D-sucrose, 2% Triton X-100, 20 μg/ml emetine, 5 mM DTT, 100 U/ml Rnasin (Promega), and protease inhibitor mixture without EDTA (Roche). Samples were centrifuged for 5 min at 16,100 g at 4° C. and supernatant was incubated with 100 g/ml puromycin for 10 min at 4° C. An equal volume of 2×SDS sample buffer (10% glycerol, 5% β-mercaptoethanol, 4% SDS, 120 mM Tris-HCl, pH 6.8) was added to the samples and then boiled for 10 min at 100° C. Protein concentrations were determined using the BCA protein assay (Thermo), and samples were stored at −20° C. until further use. Puromycin incorporation was detected by western blotting using 12D10 antibody for puromycin (1:1000, Millipore).

[2] = cited from earlier work
mice [3] = assay: Forced swim test (FST); type: in vivo, mouse
Procedure: After receiving treatments mice were subjected to FST. Briefly, mice were introduced into a transparent glass beaker (26 cm×18 cm) containing 4 liters deep water at 24° C. and were video-recorded for 6 minutes. The last 4 min were scored for immobility. Total immobility time (in seconds) is shown in the results.

mice [4] = assay: Tail suspension test (TST); type: in vivo, mouse; settings: C57BL/6 mice, Tatcont then ketamine, test 24 hours later
Procedure: Custom made clear hollow cylinders (4 cm length, 1.2 cm inner diameter, 1 g) from polycarbonate tubing were placed around the tails of mice to prevent tail climbing behavior. Tape was adhered to the tails of mice on one end, and the other end of the tape was adhered to a custom designed chamber with a white background. Mice were video recorded for 6 minute and the entire 6 minute session was scored for immobility. Total immobility time (seconds) is shown in the results.

mice [5] = assay: Novelty suppressed feeding (NSF) test; type: in vivo, mouse; settings: C57BL/6 mice, ketamine injection
Procedure: Novelty Suppressed Feeding (NSF)
After receiving the treatments mice were subjected to NSF. Briefly, mice were food deprived for 14 h and then placed in a temporary home cage for 30 min. During the test, mice were placed in a square arena 50×50 cm with bright room light. A food pellet was placed in the center of an open field. Each trial was 10 min in duration. Animal behavior was recorded, and latency to feeding (s) was measured.

Row | SMILES | protein synthesis ([1]; anisomycin 120 mg/kg b.w.) | ketamine-induced protein synthesis ([1]; anisomycin 120 mg/kg b.w. with ketamine) | persistence of antidepressant effect ([2]; human patients, single intravenous administration) | reduction of depression in human patients ([2]; single intravenous administration) | side effects of infusions in humans ([2]; single or repeated infusions, lasting a few minutes to hours) | immobility time in the FST (mice [3]; C57BL/6 mice, Tatcont then ketamine, test 24 hours later) | immobility time in the forced swim test (mice [3]; C57BL/6 mice, ketamine IP (5 mg per kg b.w. in Example 1), short-term test) | immobility time in the FST (mice [3]; WT littermates, 30 minutes after ketamine) | immobility time in FST (mice [3]; WT mice, 24 hours after ketamine injection) | immobility time in the FST (mice [3]; eEF2K-KO mice, 30 minutes after ketamine) | immobility time in FST (mice [3]; eEF2K-KO mice, 24 hours after injection) | immobility time in FST (mice [3]; ketamine 5 mg/kg b.w., FST 24 hours later, C57BL/6 mice) | immobility time in FST (mice [3]; ketamine 10 mg/kg b.w., FST 24 hours later, C57BL/6 mice) | immobility time in the TST (mice [4]) | latency to feeding in the novelty suppressed feeding test (mice [5])
1 | COc1ccc(C[C@H]2NC[C@H](O)[C@H]2OC(C)=O)cc1 [anisomycin] | blocked protein synthesis | blocked |  |  |  |  |  |  |  |  |  |  |  |  | 
2 | CNC1(c2ccccc2Cl)CCCCC1=O (stereo not drawn) [ketamine] |  |  | persists for many hours to days | sufficient to reduce depression | acute dissociative and psychotomimetic effects | shorter immobility time | reduced the immobility time; also recorded: shorter immobility time | reduced the immobility time | reduced immobility time | no difference in immobility | no difference | shorter immobility time | shorter immobility time | shorter immobility time | reduced the latency to feeding
